Measured values from patent US11078262B2, “High viscosity macromolecular compositions for treating ocular conditions” (ALLERGAN, INC., priority 2007, dated 2021).

Tested on: macula edema with central retinal vein occlusion and/or branch retinal vein occlusion
Experiment: Treatment of macular edema with intravitreal MAAC composition (ETDRS visual acuity)
Type: in vivo, human
Conditions: patient; 1 mg intravitreal every 4 months; twelve months after the first injection
Protocol: An obese patient with symptoms of diabetes presents with vision loss due to macula edema with central retinal vein occlusion and/or branch retinal vein occlusion. They receive intravitreal injection of 1 mg of a high viscosity MAAC (polymeric hyaluronate based) solution containing COMPOUND D, such as the Example 13 formulation. Equivalent injections are made every 4 months.

## siRNA Z (chain 1 CUGAGUUUAAAAGGCACCCTT; chain 2 TTGACUCAAAUUUUCCGUGGG; chemically modified, pattern not given here; one strand is listed 3' to 5') [COMPOUND D]
  improved best corrected visual acuity from baseline (ETDRS chart): fifteen
